Here are results for 20 compounds from the OPERA property sets (Mansouri et al. 2018).

Compound `NN(C(=O)c1ccc([N+](=O)[O-])cc1)c1ccccc1` came in with a logP of 2.48.
The same measure for `COc1ccc(C(=O)N(NC(=S)Nc2ccccc2)c2ccccc2)cc1`: 3.94.
The same measure for `NN(C(=O)c1ccccc1)c1ccccc1`: 2.3.
The same measure for `COc1ccc(C(=O)N(C)N)cc1`: 1.
Regarding `Cc1ccc(C(=O)N(NC(=S)Nc2ccccc2)c2ccccc2)cc1`, the logP is 4.08.
The same measure for `Cc1ccc(C(=O)N(C)N)cc1`: 1.36; for `O=C(c1ccc([N+](=O)[O-])cc1)N(NC(=S)Nc1ccccc1)c1ccccc1`: 3.87.
The compound `O=C(c1ccccc1)N(NC(=S)Nc1ccccc1)c1ccccc1` returned a logP of 3.73.
The compound `CC=NN(C(=O)c1ccccc1)c1ccccc1` registered a logP of 2.76.
The same measure for `CC=NN(C(=O)c1ccc(OC)cc1)c1ccccc1`: 3.18; for `CC=NN(C(=O)c1ccc([N+](=O)[O-])cc1)c1ccccc1`: 3.08; for `CN(N)C(=O)c1ccccc1`: 0.7.
The same measure for `COc1ccc(C(=O)N(C)NC(=S)Nc2ccccc2)cc1`: 2.56; for `CN(N)C(=O)c1ccc([N+](=O)[O-])cc1`: 0.75; for `COc1ccc(C(=O)N(N)c2ccccc2)cc1`: 2.83.
The compound `CN(NC(=S)Nc1ccccc1)C(=O)c1ccc([N+](=O)[O-])cc1` showed a logP of 2.68.
As to `Cc1ccc(C(=O)N(N)c2ccccc2)cc1`, the logP worked out at 3.
For `Cc1ccc(C(=O)N(C)NC(=S)Nc2ccccc2)cc1`, the logP was determined as 3.01.
As for `CC=NN(C(=O)c1ccc(C)cc1)c1ccccc1`, the figure is 3.6; as for `CN(NC(=S)Nc1ccccc1)C(=O)c1ccccc1`, 2.47.
